In brackets after ≈: the same amount, converted by molar mass.
Experiments:
Assay in all cases: ≥ marks a high value that may be exact or a test limit, other limits are often not marked, values filed in µg/mL are converted to µM
[1] = test system: Staphylococcus aureus NCTC 8325
[2] = test system: Escherichia coli ATCC 25922
[3] = test system: Candida albicans ATCC 90028
[4] = test system: Pseudomonas aeruginosa ATCC 9027
[5] = test system: Staphylococcus aureus ATCC 6538

| MIC [1] [µM] | MIC [2] [µM] | MIC [3] [µM] | SMILES | MIC [4] [µM] | MIC [5] [µM] |
| --- | --- | --- | --- | --- | --- |
| ≥ 140 |  |  | CC[C@H](C)[C@H](NC(=O)[C@H](CC(C)C)NC(=O)[C@H](CO)NC(=O)[C@H](C)NC(=O)[C@H](Cc1ccccc1)NC(=O)[C@H](CC(C)C)NC(=O)[C@@H]1CCCN1C(=O)[C@H](CC(C)C)NC(=O)[C@@H](N)Cc1ccccc1)C(=O)NCC(=O)N[C@@H](CCCCN)C(=O)N[C@@H](CC(C)C)C(=O)N[C@@H](CC(C)C)C(N)=O [FLPLFASLIGKLL] |  |  |
| ≥ 160 | 10 (≈ 27.2 µg/mL) |  | CC[C@H](C)[C@H](NC(=O)CNC(=O)[C@H](CCC(N)=O)NC(=O)[C@H](Cc1ccccc1)NC(=O)[C@@H](NC(=O)[C@H](CCCCN)NC(=O)[C@H](CCCCN)NC(=O)[C@H](CC(C)C)NC(=O)[C@H](C)NC(=O)[C@H](CC(N)=O)NC(=O)[C@H](CC(C)C)NC(=O)CN)C(C)C)C(=O)N[C@@H](Cc1cnc[nH]1)C(=O)N[C@@H](CCC(=O)O)C(=O)N[C@@H](C)C(=O)N[C@H](C(=O)N[C@@H](CCCCN)C(=O)N[C@@H](CC(C)C)C(=O)N[C@@H](Cc1ccccc1)C(=O)N[C@@H](CC(N)=O)C(=O)N[C@@H](CC(N)=O)C(=O)N[C@@H](Cc1cnc[nH]1)C(=O)N[C@H](C(=O)N[C@@H](CCC(N)=O)C(=O)O)C(C)C)[C@@H](C)CC [GLNALKKVFQGIHEAIKLFNNHVQ] |  |  |
| 7 (≈ 17.9 µg/mL) | 14 (≈ 35.9 µg/mL) | 5 (≈ 12.8 µg/mL) | CC[C@H](C)[C@@H]1NC(=O)[C@H](C)NC(=O)[C@@H](NC(=O)[C@H](Cc2ccccc2)NC(=O)[C@@H](NC(=O)[C@H](CCCCN)NC(=O)[C@@H]2CCCN2C(=O)[C@H](Cc2ccccc2)NC(=O)[C@@H](NC(=O)[C@H](CCCCN)NC(=O)[C@H](C)NC(=O)[C@H](C)NC(=O)[C@@H](NC(=O)CNC(=O)[C@H](C)NC(=O)[C@@H](NC(=O)[C@@H](NC(=O)[C@@H]2CCCN2C(=O)[C@H](CC(C)C)NC(=O)[C@@H](N)Cc2ccccc2)[C@@H](C)CC)[C@@H](C)CC)C(C)C)C(C)C)[C@@H](C)CC)CSSC[C@@H](C(=O)O)NC(=O)[C@H](CCCCN)NC(=O)[C@H](CCCCN)NC(=O)[C@H](CO)NC1=O [FLPIIAGVAAKVFPKIFCAISKKC] |  |  |
| ≥ 48 | > 150 | ≥ 150 | CC[C@H](C)[C@H](NC(=O)[C@H](CCCCN)NC(=O)[C@H](CCCCN)NC(=O)[C@H](C)NC(=O)[C@H](CC(C)C)NC(=O)[C@H](CC(N)=O)NC(=O)[C@@H](NC(=O)[C@H](CC(C)C)NC(=O)[C@@H](NC(=O)CNC(=O)[C@H](CC(C)C)NC(=O)[C@H](Cc1ccccc1)NC(=O)[C@@H](N)CC(N)=O)[C@@H](C)O)[C@@H](C)CC)C(=O)N[C@@H](CCSC)C(N)=O [NFLGTLINLAKKIM] |  |  |
| ≥ 100 | 30 (≈ 49.5 µg/mL) |  | CC[C@H](C)[C@H](NC(=O)[C@H](CCCCN)NC(=O)[C@H](CS)NC(=O)[C@H](Cc1ccccc1)NC(=O)[C@@H](NC(=O)CNC(=O)[C@@H](NC(=O)[C@@H]1CCCN1C(=O)[C@H](Cc1ccccc1)NC(=O)[C@@H](N)Cc1ccccc1)[C@@H](C)CC)C(C)C)C(=O)N[C@@H](Cc1ccccc1)C(=O)N[C@@H](CCCCN)C(=O)N[C@H](C(=O)N[C@@H](CS)C(=O)O)[C@@H](C)O [FFPIGVFCKIFKTC] |  |  |
| ≥ 200 | 100 (≈ 234 µg/mL) | ≥ 200 | CC[C@H](C)[C@H](NC(=O)[C@H](CC(C)C)NC(=O)[C@H](CC(=O)O)NC(=O)[C@H](CO)NC(=O)[C@@H](NC(=O)[C@H](C)NC(=O)[C@H](CCCCN)NC(=O)[C@@H](NC(=O)[C@H](CCCCN)NC(=O)[C@H](Cc1cnc[nH]1)NC(=O)[C@@H]1CCCN1C(=O)[C@@H](NC(=O)[C@H](CC(C)C)NC(=O)[C@@H]1CCCN1C(=O)CNC(=O)[C@@H](NC(=O)[C@H](Cc1ccc(O)cc1)NC(=O)[C@H](CCCCN)NC(=O)[C@H](CCSC)NC(=O)[C@H](Cc1ccccc1)NC(=O)CN)[C@@H](C)CC)[C@@H](C)CC)C(C)C)[C@@H](C)CC)C(N)=O [GFMKYIGPLIPHKVKAISDLI] |  |  |
| ≥ 50 | 3 (≈ 10.5 µg/mL) |  | CSCC[C@H](NC(=O)[C@H](CC(C)C)NC(=O)[C@H](CO)NC(=O)CNC(=O)[C@H](C)NC(=O)[C@@H](NC(=O)[C@H](CC(N)=O)NC(=O)[C@H](CCCCN)NC(=O)[C@H](CC(C)C)NC(=O)[C@@H](NC(=O)[C@H](CC(N)=O)NC(=O)[C@H](CCCCN)NC(=O)CNC(=O)[C@@H](NC(=O)[C@H](CCCCN)NC(=O)[C@H](CCCCN)NC(=O)[C@H](Cc1ccccc1)NC(=O)[C@H](C)NC(=O)[C@H](CO)NC(=O)[C@H](Cc1ccccc1)NC(=O)[C@H](CC(C)C)NC(=O)CN)C(C)C)C(C)C)C(C)C)C(=O)N[C@@H](CC(=O)O)C(=O)N[C@@H](CC(N)=O)C(=O)N[C@@H](CC(C)C)C(=O)N[C@@H](CCCCN)C(=O)N[C@H]1CSSC[C@@H](C(=O)O)NC(=O)[C@H](CCC(=O)O)NC(=O)CNC(=O)[C@H](CO)NC(=O)[C@H](C(C)C)NC(=O)[C@H](CCCCN)NC1=O [GLFSAFKKVGKNVLKNVAGSLMDNLKCKVSGEC] |  |  |
|  |  |  | CC(C)C[C@H](NC(=O)[C@H](C)NC(=O)[C@H](CCCCN)NC(=O)[C@H](CCCCN)NC(=O)[C@H](CC(C)C)NC(=O)[C@H](C)NC(=O)[C@H](CCCCN)NC(=O)[C@H](CC(C)C)NC(=O)[C@H](C)NC(=O)[C@H](CCCCN)NC(=O)[C@H](CCCCN)NC(=O)[C@H](CC(C)C)NC(=O)[C@H](C)NC(=O)[C@H](CC(C)C)NC(=O)[C@H](C)NC(=O)[C@@H](N)Cc1ccccc1)C(N)=O [FALALKKALKALKKAL] | 28.9 (≈ 50 µg/mL) | 2.89 (≈ 5 µg/mL) |
| ≥ 80 | 10 (≈ 27 µg/mL) |  | CC[C@H](C)[C@H](NC(=O)CNC(=O)[C@H](CCC(N)=O)NC(=O)[C@H](Cc1ccccc1)NC(=O)[C@@H](NC(=O)[C@H](CCCCN)NC(=O)[C@H](CCCCN)NC(=O)[C@H](CC(C)C)NC(=O)[C@H](C)NC(=O)[C@H](CCCCN)NC(=O)[C@H](CC(C)C)NC(=O)CN)C(C)C)C(=O)N[C@@H](Cc1cnc[nH]1)C(=O)N[C@@H](CCC(=O)O)C(=O)N[C@@H](C)C(=O)N[C@H](C(=O)N[C@@H](CCCCN)C(=O)N[C@@H](CC(C)C)C(=O)N[C@H](C(=O)N[C@@H](CC(N)=O)C(=O)N[C@@H](CC(N)=O)C(=O)N[C@@H](Cc1cnc[nH]1)C(=O)N[C@H](C(=O)N[C@@H](CCC(N)=O)C(=O)O)C(C)C)[C@@H](C)CC)[C@@H](C)CC [GLKALKKVFQGIHEAIKLINNHVQ] |  |  |
| 25 (≈ 59.2 µg/mL) | 12.5 (≈ 29.6 µg/mL) | ≥ 50 | CC[C@H](C)[C@H](NC(=O)[C@H](CC(C)C)NC(=O)[C@H](CCCCN)NC(=O)[C@H](CO)NC(=O)[C@@H](NC(=O)[C@H](C)NC(=O)[C@H](CCCCN)NC(=O)[C@@H](NC(=O)[C@H](C)NC(=O)[C@H](Cc1cnc[nH]1)NC(=O)[C@@H]1CCCN1C(=O)[C@@H](NC(=O)[C@H](CC(C)C)NC(=O)[C@@H]1CCCN1C(=O)[C@H](CCCCN)NC(=O)[C@@H](NC(=O)[C@H](Cc1ccc(O)cc1)NC(=O)[C@H](CCCCN)NC(=O)[C@H](CCSC)NC(=O)[C@H](Cc1ccccc1)NC(=O)CN)[C@@H](C)CC)[C@@H](C)CC)C(C)C)[C@@H](C)CC)C(=O)O [GFMKYIKPLIPHAVKAISKLI] |  |  |
| ≥ 160 | 20 (≈ 54.4 µg/mL) |  | CC[C@H](C)[C@H](NC(=O)CNC(=O)[C@H](CCC(N)=O)NC(=O)[C@H](Cc1ccccc1)NC(=O)[C@@H](NC(=O)[C@H](CCCCN)NC(=O)[C@H](CCCCN)NC(=O)[C@H](CC(C)C)NC(=O)[C@H](C)NC(=O)[C@H](CC(N)=O)NC(=O)[C@H](CC(C)C)NC(=O)CN)C(C)C)C(=O)N[C@@H](Cc1cnc[nH]1)C(=O)N[C@@H](CCC(=O)O)C(=O)N[C@@H](C)C(=O)N[C@@H](Cc1ccccc1)C(=O)N[C@@H](CCCCN)C(=O)N[C@@H](CC(C)C)C(=O)N[C@H](C(=O)N[C@@H](CC(N)=O)C(=O)N[C@@H](CC(N)=O)C(=O)N[C@@H](Cc1cnc[nH]1)C(=O)N[C@H](C(=O)N[C@@H](CCC(N)=O)C(=O)O)C(C)C)[C@@H](C)CC [GLNALKKVFQGIHEAFKLINNHVQ] |  |  |
